The star is where a group is joined. Myristoyl = CCCCCCCCCCCCCC(=O)*
Assays:
[1] = Detection of VTB epitope and VTB subunit by pH arming liposomal assay
[2] = Cloaking of peptide activity with pH and DNA binding, calcein liposome lysis
Description: Calcein liposomes containing (5 μM lipid) were added to 2 ml phosphate buffered saline containing the peptide (0.4 μM) and the fluorescence recorded. This was carried out at pH values of 6.6 and 7.4. The fluorescence intensity indicative of leakage after five minutes was expressed as a % of lysis obtained with 10 μl of 10% Triton-X100. the latter taken to represent 100% lysis. The experiment was repeated whereby the peptide was pre-condensed with calf thymus DNA (Sigma) at charge ratio to give minimum lysis at pH 7.4. […] Thus the DNA condensate of the peptide would require both the de-condensation and slightly acidic conditions to cause lysis. Cloaking of peptides with DNA binding and pH has obvious advantages when delivering genes via the endosome route where low pH is encountered. A combination of highly anionic region (towards the N terminal end of peptide 13 table 1 residues LEAALAEALEAL) and highly cationic region (the c terminal end of peptide 13 table 1, residues RRRRQQ,) within the same polypeptide sequence is critical to this fuction.
To assess condensation of DNA to peptide and its effect on cytolytic activity, assays were performed at several different pH values and at different peptide to DNA ratios. […] The peptide or complexes have a property of retaining high basic character on one end which is essential for DNA binding while retaining highly acidic character on the other half of the molecule which is critical for pH switching.

[3] = Liposome-peptide integral complex: pH-triggered calcein release and stability; settings: after Sepharose CL-6B column, FIG. 8A
Excerpt: A fatty acid incorporated on the N-terminal of peptide anchors the sequence with liposomes to form integral complex which can then be used as single stable reagent that can be triggered to release the contents-of the liposomoes when the pH is ideal (i.e physiological 7.4) or acidic (e.g 6.2). In the first instance we prepared the liposome-peptide complex at a predetermined ratio of lipid-to peptide (30:1) in pH 8 buffer using peptide 10. […] The complex between liposomes and peptide was formed by adding peptide to […] of 10 mM NaP containing 140 mM NaCl, 1 mM EDTA, 5 mM Hepes pH 8 buffer, containing 100 μl of calcein encapsulating liposomes. The mixture was incubated for 20 mins to form the complex prior to use. In order to ascertain that the lysis is occurring due to the formation of complex and not as the action of the peptide per se it was essential to purify the liposome-peptide complex. The peptide to lipid ratio in this complex is 1:30. The complex was applied to a Sepharose CL-6B column. Fractions corresponding to liposomes were collected as clearly visible to the eye. Aliquots of these fractions were then tested for lytic activity at acidic and physiological pH values. The key aim was to establish that the peptide is liposome associated and would thus be eluted with liposome fraction in the void volume. We used 100 μl complex (a column purified fraction) and followed the release of Calcein at two different pH values.
FIG. 8A. […] Upper curve pH 5.8. Lower curve pH 7.4.
2 ml buffer (10 mM Na phosphate, 140 mM NaCl, 1 mM EDTA, 5 mM HEPES)+50 μl purified complex. Lipsomes used were 50 nm extruded. Curves top to bottom are pH 6.2, 6.4, 6.7, 7.0, 7.4
Complex 20 μl liposomes+60 μl pH 8 buffer+20 μl peptide (0.1 mg/ml) prepared and used within 2 minutes. 10 μl was added to each of the cuvettes containing 2 ml buffers. Top curve pH 6.2 (triton was added towards the end indicated by sharp dip in fluorescence to check full lysis), the lower curve is at pH 7.4. Samples measured simultaneously.
5 μL of complex in 2 ml of buffer tested 20 minutes after preparation. Upper curve pH 6.2, Lower curve pH 7.4.
5 μL of complex in 2 ml of buffer tested 5 hrs after preparation. Upper curve pH 6.2 and lower curve pH 7.4.
5 μL of complex in 2 ml of buffer tested 24 hrs after preparation curve pH 6.2, Lower curve pH 7.4.

[4] = Activation of phosphorylated peptide by alkaline phosphatase, calcein liposome lysis
Description: Alkaline phosphatase (bovine intestinal mucosa) obtained from Sigma was used for dephosphorylation of peptide at the serine phosphate. A 10 μl of Peptide solution (0.01 mg/ml) was added to 2 ml of 10 mM HEPES buffer at pH 6.8 and 10 units of alkaline phosphatase added. After allowing 10-minute incubation for dephosphorylation calcein liposomes (5 μM lipid) were added and fluorescence intensity recorded using wavelengths of 490 nm for excitation and 520 nm for emission. Control experiment was conducted in the absence of alkaline phosphates. […] Thus the enzyme treatment yielded the dephosphorylated peptide resulting in activation of the peptide under mildly acidic conditions 3 μl of 0.1 mg/ml of peptide 12 (table 1) was incubated for 10 minutes with alkaline phosphatase in 20 μl 10 mM Tris-HCL pH 8 buffer. This was then added (see arrow on FIG. 14B) to 2 ml PBS pH 6.6 buffer containing 3 μl of calcein liposomes (3 mg/ml lipid concentration). Fluorescence was recorded as a function of time with excitation and emission wavelengths of 490 nm and 520 nm respectively. A similar experiment was carried out in the absence of alkaline phosphatase.

## Myr-EAALAEALAEALAEGK(ELFTNR)PALISWRRRLQQ-amide [peptide 6]
[1]; VTB subunit competing for anti-epitope antibody, pH 6.8, FIG. 7
  detection of VTB subunit by release of calcein: could also be detected
[1]; analogous to parent Peptide 2
  pH sensitivity of cytolytic activity: pH sensitive
[1]; free epitope (ELFTNR) competing for 6 μg anti-epitope antibody, FIG. 6
  detection of VTB epitope by release of calcein: could be detected

## Myr-LEAALAEALEALAAGKPALISWIRRRRQQ-Amide (Myristoyl-LEAALAEALEALAAGKPALISWIRRRRQQ-NH2; SMILES CCCCCCCCCCCCCC(=O)N[C@@H](CC(C)C)C(=O)N[C@@H](CCC(=O)O)C(=O)N[C@@H](C)C(=O)N[C@@H](C)C(=O)N[C@@H](CC(C)C)C(=O)N[C@@H](C)C(=O)N[C@@H](CCC(=O)O)C(=O)N[C@@H](C)C(=O)N[C@@H](CC(C)C)C(=O)N[C@@H](CCC(=O)O)C(=O)N[C@@H](C)C(=O)N[C@@H](CC(C)C)C(=O)N[C@@H](C)C(=O)N[C@@H](C)C(=O)NCC(=O)N[C@@H](CCCCN)C(=O)N1CCC[C@H]1C(=O)N[C@@H](C)C(=O)N[C@@H](CC(C)C)C(=O)N[C@H](C(=O)N[C@@H](CO)C(=O)N[C@@H](Cc1c[nH]c2ccccc12)C(=O)N[C@H](C(=O)N[C@@H](CCCNC(=N)N)C(=O)N[C@@H](CCCNC(=N)N)C(=O)N[C@@H](CCCNC(=N)N)C(=O)N[C@@H](CCCNC(=N)N)C(=O)N[C@@H](CCC(N)=O)C(=O)N[C@@H](CCC(N)=O)C(N)=O)[C@@H](C)CC)[C@@H](C)CC) [Peptide 13]
[2]; 0.4 μM peptide, pH 6.6 vs 7.4, five minutes, FIG. 15
  lysis of calcein liposomes when no DNA is present: activated by acidic pH
[2]; DNA substantially dissociated
  cytolytic activity with DNA at acidic pH: activity is regained
[2]; pre-condensed with calf thymus DNA, FIG. 15
  effect of DNA binding on peptide activity: substantial inactivation
[2]; several peptide to DNA ratios
  cytolytic activity bound to DNA at physiological pH: inactive

## Myr-WBALAEALAEALAEHLAKALAEALEALAA-Amide [peptide 10]
[3]; peptide to lipid 1:30, pH 5.8
  Calcein release from purified liposome-peptide complex at pH 5.8: acid triggered release
[3]; peptide to lipid 1:30, pH 7.4
  Calcein release from purified liposome-peptide complex at pH 7.4: little or no release

## Myr-WEA ALA EAL AEA S(Phospho)AE HLA RAL AEA LEA LAA-Amide [peptide 12]
[4]; 10 units alkaline phosphatase, 10 mM HEPES pH 6.8, FIG. 14A
  dye release in the presence of alkaline phosphatase, pH 6.8: substantial dye release
[4]; alkaline phosphatase pre-incubation pH 8, then PBS pH 6.6, FIG. 14B curve 1
  dye release, enzyme treated peptide, pH 6.6: release of the dye
[4]; no alkaline phosphatase, PBS pH 6.6, FIG. 14B curve 2
  dye release, non-treated peptide, pH 6.6: no or little rate increase
[4]; no alkaline phosphatase, pH 6.8, FIG. 14A
  dye release in the absence of enzyme, pH 6.8: low release
